In patent USRE38132E1, “Phenylpyrrolidines, phenylimidazolidines,3-phenyl-1,3-oxizolidines and 3-phenyl-1,3-thiazolidines and their use in the treatment of inflammatory disease” (Boehringer Ingelheim Pharmaceuticals, Inc., priority 1997, dated 2003):
pKd: −log10 of the molar value.

target: T1, interaction of ICAM-1 with the Leukointegrin CD18/CD11a (LFA-1) (Homo sapiens, UniProt P05107+P20701); assay: Assay to determine inhibition of LFA-1 binding to ICAM-1 (immunopurified LFA-1 on plate-bound sICAM-1, ELISA readout); details: not given
T1 construct: endogenous in cells; sICAM-1: made in house, secreted from transfected CHO DUX cells
T1 sequence (P20701 26-1170): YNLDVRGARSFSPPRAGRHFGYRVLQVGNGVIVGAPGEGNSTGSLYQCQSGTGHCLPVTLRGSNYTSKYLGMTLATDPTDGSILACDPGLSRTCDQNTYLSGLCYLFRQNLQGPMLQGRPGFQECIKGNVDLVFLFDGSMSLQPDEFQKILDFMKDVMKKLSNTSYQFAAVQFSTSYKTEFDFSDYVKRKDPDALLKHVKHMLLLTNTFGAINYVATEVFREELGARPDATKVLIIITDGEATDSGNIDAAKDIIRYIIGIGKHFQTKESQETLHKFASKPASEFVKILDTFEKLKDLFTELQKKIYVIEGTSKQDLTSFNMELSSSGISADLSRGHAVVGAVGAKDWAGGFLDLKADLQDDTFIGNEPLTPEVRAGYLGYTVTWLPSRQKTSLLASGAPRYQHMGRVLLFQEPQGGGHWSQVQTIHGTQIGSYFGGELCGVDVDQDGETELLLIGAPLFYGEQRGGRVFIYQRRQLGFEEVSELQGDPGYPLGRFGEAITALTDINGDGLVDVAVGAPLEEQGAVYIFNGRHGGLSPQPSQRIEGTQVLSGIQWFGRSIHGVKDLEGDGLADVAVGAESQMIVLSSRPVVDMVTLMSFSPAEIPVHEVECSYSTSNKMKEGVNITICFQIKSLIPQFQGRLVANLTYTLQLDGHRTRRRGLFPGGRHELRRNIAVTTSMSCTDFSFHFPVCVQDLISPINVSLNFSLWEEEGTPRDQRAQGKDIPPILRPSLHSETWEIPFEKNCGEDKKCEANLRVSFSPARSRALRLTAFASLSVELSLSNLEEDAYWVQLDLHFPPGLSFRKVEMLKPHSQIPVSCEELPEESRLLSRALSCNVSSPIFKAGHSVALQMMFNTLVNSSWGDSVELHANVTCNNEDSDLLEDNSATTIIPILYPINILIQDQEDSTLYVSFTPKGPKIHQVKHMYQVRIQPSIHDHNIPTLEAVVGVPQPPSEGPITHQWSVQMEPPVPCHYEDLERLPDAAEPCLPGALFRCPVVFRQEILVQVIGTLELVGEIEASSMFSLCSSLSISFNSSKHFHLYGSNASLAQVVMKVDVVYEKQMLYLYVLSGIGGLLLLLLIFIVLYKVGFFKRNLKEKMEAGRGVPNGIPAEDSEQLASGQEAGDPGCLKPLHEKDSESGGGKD
T1 sequence (P05107 23-769): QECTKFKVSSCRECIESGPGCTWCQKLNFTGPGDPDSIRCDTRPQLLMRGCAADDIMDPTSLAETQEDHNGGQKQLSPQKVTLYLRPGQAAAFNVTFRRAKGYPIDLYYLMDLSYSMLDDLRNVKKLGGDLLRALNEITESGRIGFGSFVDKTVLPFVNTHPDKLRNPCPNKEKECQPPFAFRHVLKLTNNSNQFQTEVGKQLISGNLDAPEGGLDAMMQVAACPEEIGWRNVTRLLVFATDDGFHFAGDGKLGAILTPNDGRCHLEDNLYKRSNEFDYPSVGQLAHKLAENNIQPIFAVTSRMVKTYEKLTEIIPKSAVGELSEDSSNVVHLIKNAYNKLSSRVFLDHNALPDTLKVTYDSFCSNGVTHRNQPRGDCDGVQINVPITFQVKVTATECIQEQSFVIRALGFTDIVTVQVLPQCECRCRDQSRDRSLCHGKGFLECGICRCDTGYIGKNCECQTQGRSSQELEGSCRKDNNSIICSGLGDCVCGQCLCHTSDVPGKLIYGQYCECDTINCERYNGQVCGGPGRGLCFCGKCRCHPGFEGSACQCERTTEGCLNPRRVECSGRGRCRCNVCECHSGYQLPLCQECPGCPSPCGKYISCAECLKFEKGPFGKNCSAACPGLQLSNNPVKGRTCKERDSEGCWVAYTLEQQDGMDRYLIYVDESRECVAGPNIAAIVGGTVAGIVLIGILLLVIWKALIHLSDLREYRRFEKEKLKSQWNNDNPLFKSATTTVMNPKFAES

SMILES | pKd
C[C@@]1(Cc2ccc(Br)cc2)C(=O)N(c2cc(Cl)cc(Cl)c2)C(=O)N1C1CCN(CP(=O)(O)O)CC1 [Example 236] | 6.48
CC1(Cc2ccc(-c3ccc4ccccc4c3)cc2)NC(=O)N(c2cc(Cl)cc(Cl)c2)C1=O (stereo not shown) [Example 211] | ~5.70
C[C@@]1(Cc2ccc(Br)cc2)C(=O)N(c2cc(Cl)cc(Cl)c2)C(=O)N1C(=O)[C@@H]1CCCN1 [Example 234] | 6.39
CN1C(=O)N(c2cc(C(F)(F)F)cc(C(F)(F)F)c2)C(=O)[C@]1(C)Cc1ccccc1 [Example 268] | 5.80
CC1(Cc2ccc(-c3ccccc3C(F)(F)F)cc2)NC(=O)N(c2cc(Cl)cc(Cl)c2)C1=O (stereo not shown) [Example 213] | ~5.70
CCN1C(=O)N(c2cc(Cl)cc(Cl)c2)C(=O)[C@]1(C)Cc1ccc(Br)cc1 [Example 275] | 5.70
C[C@@]1(Cc2ccc(Br)cc2)C(=O)N(c2cc(Cl)cc(Cl)c2)C(=O)N1CCCCCCP(=O)(O)O [Example 220] | 6.57
C[C@]1(Cc2ccc(Br)cc2)CC(=O)N(c2cc(Cl)cc(Cl)c2)C1=O [Example 277] | 7.15
C[C@@]1(Cc2ccc(Br)cc2)C(=O)N(c2cc(Cl)cc(Cl)c2)C(=O)N1C(=O)[C@@H](N)CO [Example 233] | 5.75
CC1(Cc2ccc(-c3cccc(F)c3)cc2)NC(=O)N(c2cc(Cl)cc(Cl)c2)C1=O (stereo not shown) [Example 212] | 7.15
Cc1cc(C)cc(-c2ccc(CC3(C)NC(=O)N(c4cc(Cl)cc(Cl)c4)C3=O)cc2)c1 (stereo not shown) [Example 210] | 6.27
O=C1NC(CCc2ccc(I)cc2)C(=O)N1c1cc(Cl)cc(Cl)c1 (stereo not shown) [Example 217] | 5.75
COc1cccc(-c2ccc(CC3(C)NC(=O)N(c4cc(Cl)cc(Cl)c4)C3=O)cc2)c1 (stereo not shown) [Example 214] | 7.05
CN1C(=O)N(c2cc(Cl)cc(Cl)c2)C(=O)C1(C)Cc1ccc(C(=O)N2CCCCC2)cc1 (stereo not shown) [Example 259] | 5.45
C[C@@]1(Cc2ccc(Br)cc2)CC(=O)N(c2cc(Cl)cc(Cl)c2)C1=O [Example 278] | 5.96
C[C@@H](c1ccccc1)[C@@]1(C)C(=O)N(c2cc(Cl)cc(Cl)c2)C(=O)N1C [Example 270] | 6.19
C[C@@]1(Cc2ccc(Br)cc2)C(=O)N(c2cc(Cl)cc(Cl)c2)C(=O)N1Cc1ccccc1C(=O)O [Example 239] | 6.55
CN1C(=O)N(c2cc(C(F)(F)F)cc(C(F)(F)F)c2)C(=O)[C@@]1(C)Cc1ccccc1 [Example 267] | 6.40

same assay, conditions: at 160 μg/mL; read-out: LFA-1/ICAM Binding Assay percent inhibition

SMILES | inhibition at 160 µg/mL
O=C1NC(Cc2cccnc2)C(=O)N1c1cc(Cl)cc(Cl)c1 (stereo not shown) [Example 181] | 47%

same assay, conditions: values marked e approximated from incomplete dose-response curve

SMILES | pKd
CC1(Cc2ccc(O)cc2)NC(=O)N(c2cc(Cl)cc(Cl)c2)C1=O (stereo not shown) [Example 9] | 5.10
COCC1(Cc2ccc(Br)cc2)C(=O)N(c2cc(Cl)cc(Cl)c2)C(=O)N1C (stereo not shown) [Example 175] | 6.64
C[C@]1(Cc2c[nH]c3ccccc23)NC(=O)N(c2cc(Cl)cc(Cl)c2)C1=O [Example 42] | 6.22
CCN1C(=O)N(c2cc(Cl)cc(Cl)c2)C(=O)C1(C)Cc1ccc(Br)cc1 (stereo not shown) [Example 105] | 6.92
O=C1NC(Cc2ccccc2O)C(=O)N1c1cc(Cl)cc(Cl)c1 (stereo not shown) [Example 3] | 5.52
Cc1cccc(CC2(C)C(=O)N(c3cc(Cl)cc(Cl)c3)C(=O)N2C)c1 (stereo not shown) [Example 143] | 5.92
CN1C(=O)N(c2cc(Cl)cc(Cl)c2)C(=O)C1C(O)c1ccccc1 (stereo not shown) [Example 178] | 5.93
C[C@H]1C(=O)N(c2cc(Cl)cc(Cl)c2)C(=O)[C@]1(C)Cc1ccccc1 [Example 74] | 6.17
CC1(Cc2ccc(-c3ccc(Cl)s3)cc2)NC(=O)N(c2cc(Cl)cc(Cl)c2)C1=O (stereo not shown) [Example 199] | 6.57
Cc1ccccc1-c1ccc(CC2(C)NC(=O)N(c3cc(Cl)cc(Cl)c3)C2=O)cc1 (stereo not shown) [Example 197] | 6.72
CC1(Cc2ccc(-c3cccc([N+](=O)[O-])c3)cc2)NC(=O)N(c2cc(Cl)cc(Cl)c2)C1=O (stereo not shown) [Example 204] | 6.30
O=C1NC(Cc2ccccc2)C(=O)N1c1cc(Cl)c(I)c(Cl)c1 (stereo not shown) [Example 71] | 5.36
CN1C(=O)N(c2cccc(Cl)c2)C(=O)[C@@]1(C)Cc1ccc(Br)cc1 [Example 101] | 6.17
CC1(Cc2cccc(Oc3ccccc3)c2)NC(=O)N(c2cc(Cl)cc(Cl)c2)C1=O (stereo not shown) [Example 56] | 6.32
CN1C(=O)N(c2cc(Cl)cc(Cl)c2)C(=O)C1(C)Cc1c(F)c(F)c(F)c(F)c1F (stereo not shown) [Example 167] | 6.22
O=C1NC(Cc2cccc(O)c2)C(=O)N1c1cc(Cl)cc(Cl)c1 (stereo not shown) [Example 4] | 5.03
CN1C(=O)N(c2cc(Cl)cc(Cl)c2)C(=O)C1(C)Cc1cccc(Cl)c1 (stereo not shown) [Example 155] | 6.29
CN1C(=O)N(c2cc(Cl)cc(Cl)c2)C(=O)C1(C)Cc1ccc2c(c1)OCO2 (stereo not shown) [Example 160] | 6.19
C[C@@]1(Cc2ccc(Br)cc2)C(=O)N(c2cc(Cl)cc(Cl)c2)C(=O)N1Cc1ccccc1C#N [Example 114] | 6.59

SMILES | pKd
CC(C)N1C(=O)N(c2cc(Cl)cc(Cl)c2)C(=O)C1(C)Cc1ccc(Br)cc1 (stereo not shown) [Example 139] | 6.10
CC1(Cc2ccccc2)C(=O)N(c2cc(Cl)cc(Cl)c2)C(=O)N1C1CC1 (stereo not shown) [Example 150] | 6.29
CC(=O)Nc1cccc(-c2ccc(CC3(C)NC(=O)N(c4cc(Cl)cc(Cl)c4)C3=O)cc2)c1 (stereo not shown) [Example 203] | 6.47
C[C@@]1(Cc2ccc(Br)cc2)C(=O)N(c2cc(Cl)cc(Cl)c2)C(=O)N1Cc1cccc(C#N)c1 [Example 104] | 6.57
Cc1ccc(CC2(C)C(=O)N(c3cc(Cl)cc(Cl)c3)C(=O)N2C)cc1 (stereo not shown) [Example 170] | 7.70
CN(C)C(=O)CN1C(=O)N(c2cc(Cl)cc(Cl)c2)C(=O)[C@@]1(C)Cc1ccc(Br)cc1 [Example 107] | 6.31
O=C1NC(Cc2ccccc2)C(=O)N1c1cc(Cl)c(Cl)c(Cl)c1 (stereo not shown) [Example 70] | 5.72
CCOc1ccccc1-c1ccc(CC2(C)NC(=O)N(c3cc(Cl)cc(Cl)c3)C2=O)cc1 (stereo not shown) [Example 193] | 6.54
CN1C(=O)N(c2cc(Cl)cc(Cl)c2)C(=O)C1(C)Cc1cccc(C#N)c1 (stereo not shown) [Example 153] | 5.66
O=C1NC(c2ccccc2)C(=O)N1c1cc(Cl)cc(Cl)c1 (stereo not shown) [Example 6] | 4.89
CCC1(Cc2ccccc2)NC(=O)N(c2cc(Cl)cc(Cl)c2)C1=O (stereo not shown) [Example 30] | 5.83
CN(C)CCN1C(=O)N(c2cc(Cl)cc(Cl)c2)C(=O)[C@@]1(C)Cc1ccc(Br)cc1 [Example 108] | 6.39
C[C@]1(Cc2cccc(-c3ccccc3)c2)NC(=O)N(c2cc(Cl)cc(Cl)c2)C1=O [Example 185] | 6.60
CC1(Cc2ccc(-c3ccc(Cl)cc3Cl)cc2)NC(=O)N(c2cc(Cl)cc(Cl)c2)C1=O (stereo not shown) [Example 201] | 6.17
Cc1ccc(-c2ccc(CC3(C)NC(=O)N(c4cc(Cl)cc(Cl)c4)C3=O)cc2)cc1[N+](=O)[O-] (stereo not shown) [Example 192] | ~6.00
O=C1C(Cc2ccccc2)N(Cc2ccccc2)C(=O)N1c1cc(Cl)cc(Cl)c1 (stereo not shown) [Example 84] | 6.38
O=C1NC(C(O)c2ccccc2)C(=O)N1c1cc(Cl)cc(Cl)c1 (stereo not shown) [Example 179] | 5.42
CCCCOc1cc(CC2(C)NC(=O)N(c3cc(Cl)cc(Cl)c3)C2=O)nc(C(F)(F)F)c1 (stereo not shown) [Example 63] | ~5.52
CN1C(=O)N(c2cc(Cl)cc(Cl)c2)C(=O)C1(C)Cc1ccccc1C#N (stereo not shown) [Example 152] | 5.58

SMILES | pKd
COc1ccc(CC2(C)C(=O)N(c3cc(Cl)cc(Cl)c3)C(=O)N2C)cc1 (stereo not shown) [Example 166] | 6.55
CC1(Cc2ccc(OC(F)(F)F)cc2)NC(=O)N(c2cc(Cl)cc(Cl)c2)C1=O (stereo not shown) [Example 57] | 6.44
CC1(Cc2ccc(Br)cc2)NC(=S)N(c2cc(Cl)cc(Cl)c2)C1=S (stereo not shown) [Example 78] | 6.47
CN1C(=S)N(c2cc(Cl)cc(Cl)c2)C(=S)C1(C)Cc1ccc(Br)cc1 (stereo not shown) [Example 79] | 6.37
O=C1NC(Cc2ccc(Br)cc2)C(=O)N1c1cc(Cl)cc(Cl)c1 (stereo not shown) [Example 19] | 6.12
COC(=O)c1ccc(CC2(C)C(=O)N(c3cc(Cl)cc(Cl)c3)C(=O)N2C)cc1 (stereo not shown) [Example 174] | 6.15
CN1C(=O)N(c2cc(Cl)cc(Cl)c2)C(=O)C1(C)Cc1ccc(S(C)(=O)=O)cc1 (stereo not shown) [Example 176] | 5.40
O=C1NC(CCc2ccccc2)C(=O)N1c1cc(Cl)cc(Cl)c1 (stereo not shown) [Example 12] | 5.76
CCOc1cccc(-c2ccc(CC3(C)NC(=O)N(c4cc(Cl)cc(Cl)c4)C3=O)cc2)c1 (stereo not shown) [Example 198] | 6.85
CC(C)C1(Cc2ccccc2)NC(=O)N(c2cc(Cl)cc(Cl)c2)C1=O (stereo not shown) [Example 32] | 4.92
CC(N)(Cc1c[nH]c2ccccc12)C(=O)O (stereo not shown) [Example 25] | 5.51
CC(C)(C)C(=O)c1ccc(CC2(C)NC(=O)N(c3cc(Cl)cc(Cl)c3)C2=O)cc1 (stereo not shown) [Example 47] | 5.37
Cc1cccc(C)c1CC1(C)NC(=O)N(c2cc(Cl)cc(Cl)c2)C1=O (stereo not shown) [Example 38] | 5.94
COc1ccccc1CN1C(=O)N(c2cc(Cl)cc(Cl)c2)C(=O)[C@@]1(C)Cc1ccc(Br)cc1 [Example 126] | 6.09
CCCC1(Cc2ccccc2)NC(=O)N(c2cc(Cl)cc(Cl)c2)C1=O (stereo not shown) [Example 31] | 5.87
COc1ccc(CC2NC(=O)N(c3cc(Cl)cc(Cl)c3)C2=O)cc1 (stereo not shown) [Example 8] | 5.54
CN1C(=O)N(c2cc(Cl)cc(Cl)c2)C(=O)C1(C)Cc1ccc(C(=O)c2ccccc2)cc1 (stereo not shown) [Example 168] | 6.39
O=C1NC(Cc2ccc(O)cc2)C(=O)N1c1cc(Cl)cc(Cl)c1 (stereo not shown) [Example 5] | 4.81

test system: SKW3 cells; assay: not given; details: not given

SMILES | Cellular Toxicity Assay MTT LD50
CC1(Cc2ccc(O)cc2)NC(=O)N(c2cc(Cl)cc(Cl)c2)C1=O (stereo not shown) [Example 9] | 250 to 500 µM
O=C1NC(Cc2ccccc2O)C(=O)N1c1cc(Cl)cc(Cl)c1 (stereo not shown) [Example 3] | 125 to 250 µM
O=C1NC(Cc2cccc(O)c2)C(=O)N1c1cc(Cl)cc(Cl)c1 (stereo not shown) [Example 4] | 250 to 500 µM
CN1C(=O)N(c2cc(C(F)(F)F)cc(C(F)(F)F)c2)C(=O)[C@]1(C)Cc1ccccc1 [Example 268] | 250 to 500 µM
O=C1NC(c2ccccc2)C(=O)N1c1cc(Cl)cc(Cl)c1 (stereo not shown) [Example 6] | 250 to 500 µM
O=C1NC(CCc2ccccc2)C(=O)N1c1cc(Cl)cc(Cl)c1 (stereo not shown) [Example 12] | 125 to 250 µM
C[C@@H](c1ccccc1)[C@@]1(C)C(=O)N(c2cc(Cl)cc(Cl)c2)C(=O)N1C [Example 270] | 250 to 500 µM
CN1C(=O)N(c2cc(C(F)(F)F)cc(C(F)(F)F)c2)C(=O)[C@@]1(C)Cc1ccccc1 [Example 267] | 250 µM
COc1ccc(CC2NC(=O)N(c3cc(Cl)cc(Cl)c3)C2=O)cc1 (stereo not shown) [Example 8] | 125 to 500 µM
O=C1NC(Cc2ccc(O)cc2)C(=O)N1c1cc(Cl)cc(Cl)c1 (stereo not shown) [Example 5] | 250 to 500 µM
